# Assay results from PMC12864594, “Photoactivated Proximity Protein Labeling Reveals Enhanced Tumor Retention of a D‐Peptide‐Ruthenium Prodrug Conjugate” (Advanced Healthcare Materials, 2025).
# Where “and” joins values, the source holds several entries; their conditions need not be identical. Equal entries are not always repeated. Peptide text beside a SMILES is read from it.
# Experiments:
# A549 cells [1] = assay: Intracellular ROS generation, CellROX Deep Red probe, FACS; format: cell-based, human; conditions: for Normalized intracellular ROS generation, light: light 515 nm, 13.1 J cm^−2
# Method: To determine the pathway by which the compounds cause cell death, a ROS generation assay was performed for Δ and Λ isomers of [1]Cl2–[3]Cl2 in A549 cells using the unspecific molecular probe CellROX Deep Red. This assay was used to quantify the formation of singlet oxygen, superoxide, and […], both in the dark or upon green light irradiation (515 nm, 13.1 J cm^−2). The cells treated with medium, Tert‐butyl hydroperoxide (tBHP), cisplatin, and Rose Bengal were used as vehicle control, positive control, negative control, and green light‐activated PDT type II control, respectively. These experiments were conducted in normoxic and hypoxic cells at the same time. The mean fluorescence intensity in each cell, which was quantified by FACS and normalized to that of controls, is a relative measure of intracellular ROS production (see Table 3; raw data in Figures S30 and S31, Supporting Information). At the end of the assay, the absolute ratio R, defined as the ratio of the ROS probe emission intensity in the light group, divided by that in the dark group, was used as quantification of light‐induced ROS production.
# The generation of ROS (reactive oxygen species) in A549 cells was measured using the ROS deep red fluorescence indicator (Abcam, ab186029). A549 (1 × 10^5, 1 mL) were seeded into 12‐well plates (Sarstedt, 83.3921) and incubated for 24 h in the dark under normoxia. The cells were then treated with [1]Cl2 ‐[3]Cl2, cisplatin, Rose Bengal or [Ru(Ph2phen)2Cl2] (15 µM). There were two groups for each drug (dark and light). After 24 h of incubation under normoxia, the plate was washed with cold PBS once, and cells were trypsinized, harvested, and then resuspended in 150 µL PBS. The cell suspension from the centrifuge tubes was transferred to 96‐round bottom well plates (Thermo Scientific, 268200), and the plates were kept in the dark or irradiated with […] light (dose = 13.1 J cm^−2). After which, the Cellular ROS Deep Red dye was added with 1000× dilution, and the cells were further stained for 1 h. The levels of intracellular ROS were then determined using the CytoFLEX flow cytometer using the APC‐A (638 nm excitation, 660/10 nm emission) channel. All flow cytometry data were processed using FlowLogic 8.5 software.
# A549 cells [2] = assay: 2D cytotoxicity, sulforhodamine B (SRB) end point assay; format: cell-based, human; conditions: A549 2D normoxic cells, 72 h, without washing, no irradiation
# Method: Considering the potential of the six diastereomers for PACT, and their better targeting of αvβ3 in hypoxic A549 cells, compared with PC‐3, their cytotoxicity was determined in 2D monolayers of normoxic and hypoxic A549 cells using a sulforhodamine B (SRB) cell quantification end point assay^[ [66] ^] in the dark (light dose 0 J cm^−2) or upon green light activation (light dose 13.1 J cm^−2). Half‐maximal effective concentrations (EC50 in µM) were measured as an evaluation of the toxicity of the compounds. The photoindex values (PI), defined as EC50,dark/ EC50,light, were calculated to quantify the extent of light activation in cancer cells. […]
# A549 cells (5000) or PC‐3 cells (6000) were seeded in 96‐well plates (Sarstedt, 83.3924), each well contained 100 µL Opti‐MEM (Gibco complete medium 11058‐021, supplemented with 2.5% v/v fetal calf serum (FCS), 0.2% v/v penicillin/streptomycin (P/S), and 1% v/v glutamine) either in normoxic (21% O2) or hypoxic (1.0% O2) incubator. […] Finally, 100 µL of cold trichloroacetic acid (10% w/v) was added to each well to fix the cells, and all plates were then transferred to a 4 °C refrigerator for 48 h before performing an SRB cell quantification endpoint assay (see below).^[ [66] ^] […] Errors were calculated utilizing 95% confidence intervals (±CI in µM). […]
# [3] = mixture of the Δ‐ and Λ‐ isomers; cited from earlier work
# Excerpt: Table 1 Photochemical properties of isolated Δ and Λ diastereoisomers of [1]Cl2–[3]Cl2 including molar extinction coefficients (ε, in M ^−1 cm^−1) at absorption maximum wavelength (405 nm), photosubstitution quantum yields for step 1 (ΦPS1) and step 2 (ΦPS2) in H2O or 50% MeCN in H2O under green light irradiation, and singlet oxygen quantum yields of each complexes in CD3OD. | column: Complex || To evaluate the efficiency of these ruthenium‐peptide conjugates [1]Cl2–[3]Cl2 as potential PDT type II agents, the quantum yields (ΦΔ) of singlet oxygen generation were further measured by direct spectroscopic detection of ^1O2 emission at 1275 nm in air‐saturated CD3OD (Table 1; Figure S21, Supporting Information). The ΦΔ value for a mixture of the Δ‐ and Λ‐ isomers of [1]Cl2 was already reported in our previous work (0.013 ± 0.005)^[ [51] ^]; within experimental errors, the values found for the isolated isomers were identical (0.008 ± 0.005 and 0.009 ± 0.005), and, like for the isomers of [ ...
# [4] = A549, hypoxia (1%), 15 µM, 24 h
# [5] = A549, hypoxia (1%), 15 µM, 24 h, dark, normalized to dark control
# [6] = A549, hypoxia (1%), 15 µM, 24 h, normalized to dark control
# [7] = A549, normoxia (21%), 15 µM, 24 h
# [8] = A549, normoxia (21%), 15 µM, 24 h, dark, mean fluorescence normalized to dark control
# [9] = A549, normoxia (21%), 15 µM, 24 h, normalized to dark control
molecule,measurement,setting,value
CSCC[C@@H](NC(=O)[C@@H](CC(=O)O)NC(=O)CNC(=O)[C@@H](CCCNC(=N)N)NC(=O)[C@@H](CCSC)NC(C)=O)C(N)=O,molar extinction coefficient ε × 10^4 at 405 nm (× 10^4 M^−1 cm^−1),,1.16 and 1.27
CSCC[C@H](NC(=O)[C@@H](CC(=O)O)NC(=O)CNC(=O)[C@@H](CCCNC(=N)N)NC(=O)[C@H](CCSC)NC(C)=O)C(N)=O (HELM PEPTIDE1{[ac].M.[dR].G.[dD].M.[am]}$$$$V2.0),molar extinction coefficient ε × 10^4 at 405 nm (× 10^4 M^−1 cm^−1),,1.12 and 1.05
"N.N.[Cl][Pt][Cl] [Cisplatin, cisplatin]",R (ROS probe emission light group / dark group),A549 cells [1]; [4],2.00
same,"Normalized intracellular ROS generation, dark",A549 cells [1]; [5],1.00
same,"Normalized intracellular ROS generation, light",A549 cells [1]; [6],1.99
same,R (ROS probe emission light group / dark group),A549 cells [1]; [7],1.74
same,"Normalized intracellular ROS generation, dark",A549 cells [1]; [8],1.28
same,"Normalized intracellular ROS generation, light",A549 cells [1]; [9],2.23
O=C([O-])c1c(Cl)c(Cl)c(Cl)c(Cl)c1-c1c2cc(I)c(=O)c(I)c-2oc2c(I)c([O-])c(I)cc12.[Na+].[Na+] [Rose Bengal],R (ROS probe emission light group / dark group),A549 cells [1]; [4],3.05
same,"Normalized intracellular ROS generation, dark",A549 cells [1]; [5],0.84
same,"Normalized intracellular ROS generation, light",A549 cells [1]; [6],2.56
same,R (ROS probe emission light group / dark group),A549 cells [1]; [7],5.2 and 5.21
same,"Normalized intracellular ROS generation, dark",A549 cells [1]; [8],0.90
same,"Normalized intracellular ROS generation, light",A549 cells [1]; [9],4.71
F[P-](F)(F)(F)(F)F.F[P-](F)(F)(F)(F)F.[Ru+2].c1ccc(-c2ccnc3c2ccc2c(-c4ccccc4)ccnc23)cc1.c1ccc(-c2ccnc3c2ccc2c(-c4ccccc4)ccnc23)cc1 [[Ru(Ph2phen)2(H2O)2](PF6)2],EC50,A549 cells [2],> 100 µM
"CC(C)(C)OO [tBHP, Tert‐butyl hydroperoxide]","Normalized intracellular ROS generation, dark","A549 cells [1]; A549, hypoxia (1%), positive control 250 µM, 1 h",4.36
same,"Normalized intracellular ROS generation, dark","A549 cells [1]; A549, normoxia (21%), positive control 250 µM, 1 h",14.00
Ac-MRGDM-NH2,molar extinction coefficient ε × 10^4 at 405 nm (× 10^4 M^−1 cm^−1),,1.18 and 1.21
[Ru(Ph2phen)2(Ac‐MRGDM‐NH2)]Cl2 (sidechain bridge or staple) [[1]Cl2],ΦΔ (1O2) singlet oxygen quantum yield,[3],0.013 ± 0.005
